pIC50: −log10 of the molar value. In brackets after ≈: the same amount, converted by molar mass. Activity calls are given as the source filed them. The calls are words filed in the database; no cut-off is given here.
How the values were obtained:
[1] = Cytotoxicity against human HeLa cells by SRB assay; type: toxicity, cell-based
Staphylococcus aureus [2] = assay: Antibacterial activity against vancomycin intermediate and methicillin resistant Staphylococcus aureus ATCC 700699; type: functional
Staphylococcus aureus [3] = assay: Antibacterial activity against methicillin resistant Staphylococcus aureus 20-11; type: functional
Staphylococcus aureus [4] = assay: Antibacterial activity against methicillin resistant Staphylococcus aureus 18-2; type: functional
[5] = tested on: Staphylococcus epidermidis; assay: Antibacterial activity against methicillin resistant Staphylococcus epidermidis 19-1; type: functional
Staphylococcus aureus [6] = assay: Antibacterial activity against methicillin sensitive Staphylococcus aureus 20-12; type: functional
Staphylococcus aureus [7] = assay: Antibacterial activity against methicillin sensitive Staphylococcus aureus ATCC 29213; type: functional
Staphylococcus aureus [8] = assay: Antibacterial activity against methicillin resistant Staphylococcus aureus ATCC 43300; type: functional
[9] = tested on: Staphylococcus epidermidis; assay: Antibacterial activity against methicillin sensitive Staphylococcus epidermidis ATCC 12228; type: functional
[10] = tested on: Staphylococcus epidermidis; assay: Antibacterial activity against methicillin resistant Staphylococcus epidermidis 19-2; type: functional
Staphylococcus aureus [11] = assay: Antibacterial activity against vancomycin intermediate and methicillin resistant Staphylococcus aureus ATCC 700698; type: functional
Staphylococcus aureus [12] = assay: Antibacterial activity against methicillin sensitive Staphylococcus aureus 15; type: functional
Staphylococcus aureus [13] = assay: Antibacterial activity against methicillin sensitive Staphylococcus aureus ATCC 33591; type: functional
[14] = Cytotoxicity against human HepG2 cells by SRB assay; type: toxicity, cell-based
[15] = tested on: Staphylococcus epidermidis; assay: Antibacterial activity against methicillin sensitive Staphylococcus epidermidis 17-13; type: functional
Enterococcus faecium [16] = assay: Antibacterial activity against Vanomycin-resistant Enterococcus faecium ATCC 700221; type: functional
Staphylococcus aureus [17] = assay: Selectivity ratio of MBC for bactericidal activity against vancomycin intermediate and methicillin resistant Staphylococcus aureus ATCC 700698 to MIC for antibacterial activity against vancomycin intermediate and methicillin resistant Staphylococcus aureus ATCC 700698; type: functional
Staphylococcus aureus [18] = assay: Antibacterial activity against methicillin resistant Staphylococcus aureus ATCC 33591; type: functional
Enterococcus faecium [19] = assay: Bactericidal activity against Vanomycin-resistant Enterococcus faecium ATCC 700221; type: functional
Enterococcus faecium [20] = assay: Antibacterial activity against Vanomycin-resistant Enterococcus faecium 15-6; type: functional
Staphylococcus aureus [21] = assay: Selectivity ratio of MBC for bactericidal activity against methicillin resistant Staphylococcus aureus ATCC 33591 to MIC for antibacterial activity against methicillin resistant Staphylococcus aureus ATCC 33591; type: functional
Enterococcus faecium [22] = assay: Selectivity ratio of MBC for bactericidal activity against Vanomycin-resistant Enterococcus faecium ATCC 700221 to MIC for antibacterial activity against Vanomycin-resistant Enterococcus faecium ATCC 700221; type: functional
Enterococcus faecalis [23] = assay: Antibacterial activity against Vanomycin-resistant Enterococcus faecalis ATCC 51299; type: functional
Enterococcus faecium [24] = assay: Antibacterial activity against Vanomycin-resistant Enterococcus faecium ATCC 51559; type: functional
Staphylococcus aureus [25] = assay: Selectivity ratio of MBC for bactericidal activity against methicillin resistant Staphylococcus aureus 16-30 to MIC for antibacterial activity against methicillin resistant Staphylococcus aureus 16-30; type: functional
Enterococcus faecalis [26] = assay: Antibacterial activity against Vanomycin-resistant Enterococcus faecalis ATCC 51575; type: functional
Staphylococcus aureus [27] = assay: Selectivity ratio of MBC for bactericidal activity against methicillin resistant Staphylococcus aureus ATCC 43300 to MIC for antibacterial activity against methicillin resistant Staphylococcus aureus ATCC 43300; type: functional
Enterococcus faecalis [28] = assay: Bactericidal activity against Vanomycin-resistant Enterococcus faecalis ATCC 51299; type: functional
Staphylococcus aureus [29] = assay: Bactericidal activity against methicillin resistant Staphylococcus aureus 16-30; type: functional
Staphylococcus aureus [30] = assay: Bactericidal activity against vancomycin intermediate and methicillin resistant Staphylococcus aureus ATCC 700698; type: functional
Enterococcus faecalis [31] = assay: Selectivity ratio of MBC for bactericidal activity against Vanomycin-resistant Enterococcus faecalis ATCC 51299 to MIC for antibacterial activity against Vanomycin-resistant Enterococcus faecalis ATCC 51299; type: functional
Staphylococcus aureus [32] = assay: Bactericidal activity against methicillin resistant Staphylococcus aureus ATCC 33591; type: functional
Staphylococcus aureus [33] = assay: Bactericidal activity against methicillin resistant Staphylococcus aureus ATCC 43300; type: functional
Staphylococcus aureus [34] = assay: Antibacterial activity against methicillin resistant Staphylococcus aureus 16-30; type: functional

Row | Compound | pIC50 [1] | MIC (Staphylococcus aureus [2]) | MIC (Staphylococcus aureus [3]) | MIC (Staphylococcus aureus [4]) | MIC [5] | MIC (Staphylococcus aureus [6]) | MIC (Staphylococcus aureus [7]) | MIC (Staphylococcus aureus [8]) | MIC [9] | MIC [10] | MIC (Staphylococcus aureus [11]) | MIC (Staphylococcus aureus [12]) | MIC (Staphylococcus aureus [13]) | pIC50 [14] | MIC [15] | MIC (Enterococcus faecium [16]) | MIC (Enterococcus faecium [20]) | MIC (Enterococcus faecalis [23]) | MIC (Enterococcus faecium [24]) | MIC (Enterococcus faecalis [26]) | also measured
1 | O=C(Nc1ccc(OC(F)(F)F)cc1)N1CCN(c2ccc(Cl)c(C(F)(F)F)c2)C1=O | 4.00 | inactive | inactive | inactive | inactive | inactive | inactive | inactive | inactive | inactive | inactive | inactive | inactive | 4.00 | inactive |  |  |  |  |  | 
2 | O=C(Nc1ccc(OC(F)(F)F)cc1)Nc1ccc(Cl)c(C(F)(F)F)c1 | 5.03 | 0.15 µM (≈ 0.0598 µg/mL) | 0.63 µM (≈ 0.251 µg/mL) | 0.3 µM (≈ 0.12 µg/mL) | 1.25 µM (≈ 0.498 µg/mL) | 1.25 µM (≈ 0.498 µg/mL) | 0.63 µM (≈ 0.251 µg/mL) | 0.63 µM (≈ 0.251 µg/mL) | 1.25 µM (≈ 0.498 µg/mL) | 1.25 µM (≈ 0.498 µg/mL) | 0.63 µM (≈ 0.251 µg/mL) | 1.25 µM (≈ 0.498 µg/mL) | 1.25 µM (≈ 0.498 µg/mL) | 5.20 | 0.63 µM (≈ 0.251 µg/mL) | 1.25 µM (≈ 0.498 µg/mL) | 2.51 µM (≈ 1 µg/mL) | 2.51 µM (≈ 1 µg/mL) | 2.51 µM (≈ 1 µg/mL) | 2.51 µM (≈ 1 µg/mL) | Ratio (Staphylococcus aureus [17]): >255; MIC (Staphylococcus aureus [18]): 1.25 µM (≈ 0.498 µg/mL); MBC (Enterococcus faecium [19]): > 321 µM; Ratio (Staphylococcus aureus [21]): >128; Ratio (Enterococcus faecium [22]): >257; Ratio (Staphylococcus aureus [25]): >32; Ratio (Staphylococcus aureus [27]): >255; MBC (Enterococcus faecalis [28]): > 321 µM; MBC (Staphylococcus aureus [29]): > 80.3 µM; MBC (Staphylococcus aureus [30]): > 161 µM; Ratio (Enterococcus faecalis [31]): >128; MBC (Staphylococcus aureus [32]): > 161 µM; MBC (Staphylococcus aureus [33]): > 161 µM; MIC (Staphylococcus aureus [34]): 2.51 µM (≈ 1 µg/mL)
3 | O=C(Nc1ccc(Cl)c(C(F)(F)F)c1)Nc1ccc(Cl)c(C(F)(F)F)c1 | 5.57 | 1.2 µM (≈ 0.501 µg/mL) | 1.2 µM (≈ 0.501 µg/mL) | 1.2 µM (≈ 0.501 µg/mL) | 1.2 µM (≈ 0.501 µg/mL) | 1.2 µM (≈ 0.501 µg/mL) | 1.2 µM (≈ 0.501 µg/mL) | 1.2 µM (≈ 0.501 µg/mL) | 1.2 µM (≈ 0.501 µg/mL) | 1.2 µM (≈ 0.501 µg/mL) | 1.2 µM (≈ 0.501 µg/mL) | 1.2 µM (≈ 0.501 µg/mL) | 1.2 µM (≈ 0.501 µg/mL) | 5.11 | 1.2 µM (≈ 0.501 µg/mL) | 4.79 µM (≈ 2 µg/mL) | 2.4 µM (≈ 1 µg/mL) | 4.79 µM (≈ 2 µg/mL) | 4.79 µM (≈ 2 µg/mL) | 4.79 µM (≈ 2 µg/mL) | MIC (Staphylococcus aureus [18]): 1.2 µM (≈ 0.501 µg/mL); Ratio (Staphylococcus aureus [21]): 4; Ratio (Staphylococcus aureus [25]): 8; Ratio (Staphylococcus aureus [27]): 8; MBC (Staphylococcus aureus [29]): 9.59 µM (≈ 4 µg/mL); MBC (Staphylococcus aureus [32]): 4.79 µM (≈ 2 µg/mL); MBC (Staphylococcus aureus [33]): 9.59 µM (≈ 4 µg/mL); MIC (Staphylococcus aureus [34]): 1.2 µM (≈ 0.501 µg/mL)
4 | O=C(Nc1ccc(Cl)c(C(F)(F)F)c1)Nc1cc(Cl)ccc1F |  | 1.36 µM (≈ 0.499 µg/mL) | 2.72 µM (≈ 0.999 µg/mL) | 1.36 µM (≈ 0.499 µg/mL) | 2.72 µM (≈ 0.999 µg/mL) | 2.72 µM (≈ 0.999 µg/mL) | 2.72 µM (≈ 0.999 µg/mL) | 2.72 µM (≈ 0.999 µg/mL) | 2.72 µM (≈ 0.999 µg/mL) | 2.72 µM (≈ 0.999 µg/mL) | 1.36 µM (≈ 0.499 µg/mL) | 1.36 µM (≈ 0.499 µg/mL) | 2.72 µM (≈ 0.999 µg/mL) |  | 2.72 µM (≈ 0.999 µg/mL) | 2.72 µM (≈ 0.999 µg/mL) | 2.72 µM (≈ 0.999 µg/mL) | 5.45 µM (≈ 2 µg/mL) | 2.72 µM (≈ 0.999 µg/mL) | 5.45 µM (≈ 2 µg/mL) | 
5 | O=C(Nc1ccc(OC(F)F)cc1)Nc1ccc(Cl)c(C(F)(F)F)c1 |  | 0.66 µM (≈ 0.251 µg/mL) | 0.66 µM (≈ 0.251 µg/mL) | 5.25 µM (≈ 2 µg/mL) | 5.25 µM (≈ 2 µg/mL) | 10.5 µM (≈ 4 µg/mL) | 10.5 µM (≈ 4 µg/mL) | 10.5 µM (≈ 4 µg/mL) | 10.5 µM (≈ 4 µg/mL) | 10.5 µM (≈ 4 µg/mL) | 1.31 µM (≈ 0.499 µg/mL) | 0.66 µM (≈ 0.251 µg/mL) | 10.5 µM (≈ 4 µg/mL) |  | 2.63 µM (≈ 1 µg/mL) | 21 µM (≈ 8 µg/mL) | 21 µM (≈ 8 µg/mL) | inactive | 21 µM (≈ 8 µg/mL) | inactive | 

Reference: ChEMBL document CHEMBL5223117, “Synthesis and biological evaluation of novel N, N'-diarylurea derivatives as potent antibacterial agents against MRSA” (Bioorg Med Chem Lett, 2022)
